From patent US10130637B2, “Inhibition of histone methyltransferase for cardiac reprogramming” (Duke University, priority 2012, dated 2018)
Structures can show the parent of a compound that is named as a salt.

Key:
G9a-like protein = target: T1, G9a-like protein (Homo sapiens, UniProt Q9H9B1); details: reported activity; cited from earlier work
T1 sequence (Q9H9B1 1-1298): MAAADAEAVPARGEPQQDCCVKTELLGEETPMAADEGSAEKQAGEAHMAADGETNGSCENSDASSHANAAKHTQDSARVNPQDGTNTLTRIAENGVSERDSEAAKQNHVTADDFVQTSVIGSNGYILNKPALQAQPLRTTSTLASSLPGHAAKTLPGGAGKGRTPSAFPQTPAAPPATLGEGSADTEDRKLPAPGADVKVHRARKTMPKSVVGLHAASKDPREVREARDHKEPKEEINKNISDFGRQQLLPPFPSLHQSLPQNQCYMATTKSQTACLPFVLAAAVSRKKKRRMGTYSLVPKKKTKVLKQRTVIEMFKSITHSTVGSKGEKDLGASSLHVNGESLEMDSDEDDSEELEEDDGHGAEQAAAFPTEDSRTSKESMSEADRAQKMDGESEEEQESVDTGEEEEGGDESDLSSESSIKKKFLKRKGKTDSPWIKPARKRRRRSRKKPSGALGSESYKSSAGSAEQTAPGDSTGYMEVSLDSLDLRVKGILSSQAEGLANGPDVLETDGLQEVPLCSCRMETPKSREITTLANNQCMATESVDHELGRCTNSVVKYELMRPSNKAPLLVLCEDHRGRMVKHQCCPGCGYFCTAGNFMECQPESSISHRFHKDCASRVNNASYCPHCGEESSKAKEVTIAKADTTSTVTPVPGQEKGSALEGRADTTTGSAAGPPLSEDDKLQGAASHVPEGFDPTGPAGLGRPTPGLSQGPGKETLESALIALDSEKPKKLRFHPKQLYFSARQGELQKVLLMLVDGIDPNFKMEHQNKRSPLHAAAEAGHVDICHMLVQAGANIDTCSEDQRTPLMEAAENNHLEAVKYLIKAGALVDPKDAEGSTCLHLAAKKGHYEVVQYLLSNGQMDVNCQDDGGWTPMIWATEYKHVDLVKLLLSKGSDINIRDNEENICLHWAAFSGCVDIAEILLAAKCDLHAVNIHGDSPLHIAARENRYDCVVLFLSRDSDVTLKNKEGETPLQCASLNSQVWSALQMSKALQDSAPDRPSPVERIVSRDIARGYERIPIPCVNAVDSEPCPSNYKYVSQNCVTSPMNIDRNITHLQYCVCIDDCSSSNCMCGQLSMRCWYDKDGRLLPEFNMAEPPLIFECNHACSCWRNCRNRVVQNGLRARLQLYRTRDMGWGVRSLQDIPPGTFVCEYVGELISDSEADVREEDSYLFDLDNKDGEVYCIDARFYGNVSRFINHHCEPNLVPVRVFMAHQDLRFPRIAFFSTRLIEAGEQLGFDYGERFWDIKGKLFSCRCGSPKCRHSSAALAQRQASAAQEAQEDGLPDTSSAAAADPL

[1] = system: Neonatal cardiac fibroblasts; assay: cardiac marker gene expression by qPCR in neonatal cardiac fibroblasts treated with HMT inhibitors, no microRNA; assay type: cell-based, mouse; details: 1 μM, after 3 days, absence of microRNA combination (FIG. 9A)
Description: Neonatal cardiac fibroblasts were treated with 1 μM of the H3K9me3 inhibitor BIX-01294 (BIX) or 1 μM of the H3K27me3/H4K20me3 inhibitor 3-Deazaneplanocin A hydrochloride (DZNep) from day 1 to day 3 in the absence (A) or presence of microRNA combination (MC) (B). Gene expression of cardiac markers was assessed by qPCR. Data are shown as Avg+Sdv. *P<0.05.
Inhibition of histone methyltransferase activity by small molecule compounds was investigated. Neonatal cardiac fibroblasts were treated with 1 μM of the H3K9 methylation inhibitor BIX-01294 or 1 μM of the H3K27/H4K20 methylation inhibitor 3-Deazaneplanocin A hydrochloride (DZNep). After 3 days, RNA was harvested using standard protocols known in the art, and cardiac gene expression was assessed by qPCR. The cardiac genes tested were Tbx5, Mef2C, Gata4, and Nkx2.5. […] Alternatively, inhibition of H3K9 causes upregulation of other cardiac markers, such asTbx5, and therefore inhibition of H3K9 methylation also promotes the expression of at least one cardiac marker.

[2] = system: lysine 9 of histone H3 (H3K9); details: has been shown; cited from earlier work
[3] = target: T2, G9a histone lysine methyltransferase (Homo sapiens, UniProt Q96KQ7); details: reported activity; cited from earlier work
T2 sequence (Q96KQ7 1-1210): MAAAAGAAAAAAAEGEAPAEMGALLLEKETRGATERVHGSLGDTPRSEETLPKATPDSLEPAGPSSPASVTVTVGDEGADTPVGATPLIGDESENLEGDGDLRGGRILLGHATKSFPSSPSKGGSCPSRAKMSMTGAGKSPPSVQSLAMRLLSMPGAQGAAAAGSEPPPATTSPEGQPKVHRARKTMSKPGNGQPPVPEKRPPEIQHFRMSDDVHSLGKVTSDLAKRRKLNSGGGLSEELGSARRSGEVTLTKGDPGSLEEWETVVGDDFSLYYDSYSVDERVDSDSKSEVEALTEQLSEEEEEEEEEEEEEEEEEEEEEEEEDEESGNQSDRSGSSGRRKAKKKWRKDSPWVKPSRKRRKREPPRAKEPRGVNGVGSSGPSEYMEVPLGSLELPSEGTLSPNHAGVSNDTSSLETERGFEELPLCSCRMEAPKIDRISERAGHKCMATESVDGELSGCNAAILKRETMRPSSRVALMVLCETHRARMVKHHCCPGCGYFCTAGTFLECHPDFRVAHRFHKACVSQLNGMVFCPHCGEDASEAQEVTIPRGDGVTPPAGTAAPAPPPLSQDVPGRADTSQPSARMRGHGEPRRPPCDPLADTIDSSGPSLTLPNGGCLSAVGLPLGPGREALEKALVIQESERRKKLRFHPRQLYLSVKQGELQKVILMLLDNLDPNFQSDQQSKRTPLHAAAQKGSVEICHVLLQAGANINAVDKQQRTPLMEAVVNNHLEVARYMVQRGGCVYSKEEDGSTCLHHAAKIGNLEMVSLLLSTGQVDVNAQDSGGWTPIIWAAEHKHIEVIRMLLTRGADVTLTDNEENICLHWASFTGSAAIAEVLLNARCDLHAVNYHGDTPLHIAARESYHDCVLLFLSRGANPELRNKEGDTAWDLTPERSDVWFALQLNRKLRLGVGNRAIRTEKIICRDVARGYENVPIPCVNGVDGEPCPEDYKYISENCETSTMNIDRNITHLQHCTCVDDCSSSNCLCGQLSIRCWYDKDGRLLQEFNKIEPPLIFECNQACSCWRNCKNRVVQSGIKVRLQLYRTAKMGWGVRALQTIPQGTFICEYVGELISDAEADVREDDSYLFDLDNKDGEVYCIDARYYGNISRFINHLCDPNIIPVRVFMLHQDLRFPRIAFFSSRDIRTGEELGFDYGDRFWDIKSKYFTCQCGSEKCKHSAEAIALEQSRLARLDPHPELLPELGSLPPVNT

[4] = system: Human fibroblasts (BJ cells); assay: cardiac marker gene expression by qPCR in miRNA-transfected human fibroblasts with JAK inhibitor; assay type: cell-based; details: 1 μM, compared to cells transfected with the miRNAs alone
Description: Gene expression was determined by qPCR. (A) Isl-1 gene expression. (B) […] gene expression. (C) Tbx5 gene expression. (D) Mef2c gene expression. (E) Gata-4 gene expression.
RNA was harvested and prepared according to standard protocols for qPCR gene expression analysis. The expression of cardiac marker genes, such as Isl1, Mesp1, Tbx5, Mef2c, Gata4, and Hand2 was assessed.

Compound: COc1cc2nc(N3CCCN(C)CC3)nc(NC3CCN(Cc4ccccc4)CC3)c2cc1OC [BIX-01294, 2-(Hexahydro-4-methyl-1H-1,4-diazepin-1-yl)-6,7-dimethoxy-N-[1-(phenylmethyl)-4-piperidinyl]-4-quinazolinamine trihydrochloride]
- activity on G9a-like protein (G9a-like protein): inhibition
- Mef2C cardiac marker gene expression [1]: significant downregulation
- Nkx2.5 cardiac marker gene expression [1]: significant downregulation
- Tbx5 cardiac marker gene expression [1]: upregulation
- methylation at lysine 9 of histone H3 (H3K9) [2]: inhibit
- activity on G9a histone lysine methyltransferase [3]: inhibition

Compound: CC(C)(C)c1nc2c3ccc(F)cc3c3c(=O)[nH]ccc3c2[nH]1 [JAK inhibitor I, 2-(1,1-Dimethylethyl)-9-fluoro-3,6-dihydro-7H-benz[h]-imidaz[4,5-f]isoquinolin-7-one]
- expression of cardiac markers (Isl1, Mesp1, Tbx5, Mef2c, Gata4, Hand2) [4]: increases
